# Measurements: patent US20210395241A1, “NLRP MODULATORS” (Novartis AG, priority 2018, published 2021)
# Test system: IL-1β production in PMA-differentiated THP-1 cells
# Experiment: IL-1β production in PMA-differentiated THP-1 cells stimulated with gramicidin (hTHP-1 assay)
# Type: cell-based
# Conditions: Homo sapiens, gramicidin 5 μM, 2% fetal bovine serum, class symbols
# Procedure: Procedure 1: IL-1β Production in PMA-Differentiated THP-1 Cells Stimulated with Gramicidin.
# THP-1 cells were purchased from the American Type Culture Collection and sub-cultured according to instructions from the supplier. Cells were cultured in complete RPMI 1640 (containing 10% heat inactivated FBS, penicillin (100 units/ml) and streptomycin (100 μg/ml)), and maintained in log phase prior to experimental setup. Prior to the experiment, compounds were dissolved in dimethyl sulfoxide (DMSO) to generate a 30 mM stock. The compound stock was first pre-diluted in DMSO to 3, 0.34, 0.042 and 0.0083 mM intermediate concentrations and subsequently spotted using Echo550 liquid handler into an empty 384-well assay plate to achieve desired final concentration (e.g. 100, 33, 11, 3.7, 1.2, 0.41, 0.14, 0.046, 0.015, 0.0051, 0.0017 μM). DMSO was backfilled in the plate to achieve a final DMSO assay concentration of 0.37%. The plate was then sealed and stored at room temperature until required.
# THP-1 cells were treated with PMA (Phorbol 12-myristate 13-acetate) (20 ng/ml) for 16-18 hours. On the day of the experiment the media was removed and adherent cells were detached with trypsin for 5 minutes. Cells were then harvested, washed with complete RPMI 1640, spun down, and resuspended in RPMI 1640 (containing 2% heat inactivated FBS, penicillin (100 units/ml) and streptomycin (100 μg/ml). The cells were plated in the 384-well assay plate containing the spotted compounds at a density of 50,000 cells/well (final assay volume 50 μl). Cells were incubated with compounds for 1 hour and then stimulated with gramicidin (5 μM) (Enzo) for 2 hours. Plates were then centrifuged at 340 g for 5 min. Cell free supernatant (40 μL) was collected using a 96-channel PlateMaster (Gilson) and the production of IL-1β was evaluated by HTRF (cisbio). The plates were incubated for 18 h at 4° C. and read using the preset HTRF program (donor emission at 620 nm, acceptor emission at 668 nm) of the SpectraMax i3x spectrophotometer (Molecular Devices, software SoftMax 6). A vehicle only control and a dose titration of CRID3 (100-0.0017 μM) were run concurrently with each experiment. Data was normalized to vehicle-treated samples (equivalent to 0% inhibition) and CRID3 at 100 μM (equivalent to 100% inhibition).
# Procedure 2: IL-1β Production in PMA-Differentiated THP-1 Cells Stimulated with Gramicidin.
# THP-1 cells were purchased from the American Type Culture Collection and sub-cultured according to instructions from the supplier. Prior to experiments, cells were cultured in complete RPMI 1640 (containing 10% heat inactivated FBS, penicillin (100 units/ml) and streptomycin (100 μg/ml)), and maintained in log phase prior to experimental setup. Prior to the experiment THP-1 were treated with PMA (Phorbol 12-myristate 13-acetate) (20 ng/ml) for 16-18 hours. Compounds were dissolved in dimethyl sulfoxide (DMSO) to generate a 30 mM stock. On the day of the experiment the media was removed and adherent cells were detached with trypsin for 5 minutes. Cells were then harvested, washed with complete RPMI 1640, spun down, resuspended in RPMI 1640 (containing 2% heat inactivated FBS, penicillin (100 units/ml) and streptomycin (100 μg/ml). The cells were plated in a 384-well plate at a density of 50,000 cells/well (final assay volume 50 μl). Compounds were first dissolved in assay medium to obtain a 5× top concentration of 500 μM. 10 step dilutions (1:3) were then undertaken in assay medium containing 1.67% DMSO. 5× compound solutions were added to the culture medium to achieve desired final concentration (e.g. 100, 33, 11, 3.7, 1.2, 0.41, 0.14, 0.046, 0.015, 0.0051, 0.0017 μM). Final DMSO concentration was at 0.37%. Cells were incubated with compounds for 1 hour and then stimulated with gramicidin (5 μM) (Enzo) for 2 hours. Plates were then centrifuged at 340 g for 5 min. […]
row,Structure (SMILES),IC50
1,CC(C)c1ccc(C#N)c(C(C)C)c1CC(=O)NS(=O)(=O)c1sc(C(C)(C)O)nc1CO [Compound 104],5000 to 30000 nM
2,CC(C)c1cc2c(c(C(C)C)c1CC(=O)NS(=O)(=O)c1sc(C(C)(C)O)nc1CO)COC2 [Compound 102],1000 to 5000 nM
3,CC(C)c1cc(-c2ccc3c(c2)OC(F)(F)O3)cc(C(C)C)c1CC(=O)NS(=O)(=O)c1sc(C(C)(C)O)nc1CO [Compound 142],8 to 40 nM
4,CC(C)c1cc(C#N)c(F)c(C(C)C)c1CC(=O)NS(=O)(=O)c1cc(CO)c(C(C)(C)O)cc1F [Compound 125],1000 to 5000 nM
5,CNS(=O)(=O)c1ccc(S(=O)(=O)NC(=O)Cc2c(C(C)C)cc(C#N)c(F)c2C(C)C)c(CO)c1 [Compound 127],200 to 1000 nM
6,CNS(=O)(=O)c1cc(CO)cc(S(=O)(=O)NC(=O)Cc2c(C(C)C)cc(C#N)c(F)c2C(C)C)c1 [Compound 129],1000 to 5000 nM
7,CC(C)c1c(F)c(C#N)cc(C2CC2)c1CC(=O)NS(=O)(=O)c1sc(C(C)(C)O)nc1CO [Compound 105],1000 to 5000 nM
8,COCc1cc(C(C)C)c(CC(=O)NS(=O)(=O)c2sc(C(C)(C)O)nc2CO)c(C(C)C)c1 [Compound 118],1000 to 5000 nM
9,CC(C)c1cc(C#N)cc(C(C)C)c1CC(=O)NS(=O)(=O)c1cc(CO)c(C(C)(C)O)cc1F [Compound 130],1000 to 5000 nM
10,CC(C)c1cc(C#N)c(F)c(C(C)C)c1CC(=O)NS(=O)(=O)c1sc(C(C)(C)O)nc1CCO [Compound 108],200 to 1000 nM
11,CC(C)c1cc(C#N)c(F)c(C(C)C)c1CC(=O)NS(=O)(=O)c1sc(C(C)(C)O)nc1CO [Compound 136],200 to 1000 nM
12,Cc1cc(C(C)(C)O)c(CO)cc1S(=O)(=O)NC(=O)Cc1c(C(C)C)cc(C#N)cc1C(C)C [Compound 123],5000 to 30000 nM
13,CC(C)Cc1cc(C#N)cc(C(C)C)c1CC(=O)NS(=O)(=O)c1sc(C(C)(C)O)nc1CO [Compound 122],1000 to 5000 nM
14,CC(C)c1cncc(C(C)C)c1CC(=O)NS(=O)(=O)c1sc(C(C)(C)O)nc1CO [Compound 109],5000 to 30000 nM
15,CC(C)c1c(F)c(C#N)c(F)c(C(C)C)c1CC(=O)NS(=O)(=O)c1sc(C(C)(C)O)nc1CO [Compound 135],200 to 1000 nM
16,CC(C)c1cc(C#N)cc(C(C)C)c1CC(=O)NS(=O)(=O)c1ccc(CN(C)C)c(CO)c1 [Compound 137],5000 to 30000 nM
17,CCC(C)c1cc(C#N)cc(C(C)C)c1CC(=O)NS(=O)(=O)c1sc(C(C)(C)O)nc1CO (stereo not drawn) [Compound 119],200 to 1000 nM
18,CNS(=O)(=O)c1ccc(S(=O)(=O)NC(=O)Cc2c(C(C)C)cc(C#N)c(F)c2C(C)C)c(OC)c1 [Compound 117],200 to 1000 nM
19,CNS(=O)(=O)c1ccc(S(=O)(=O)NC(=O)Cc2c(C(C)C)cc(COC3CCCC3)cc2C(C)C)c(CO)c1 [Compound 140],40 to 200 nM
20,CC(C)c1cc(-c2ccc3c(c2)COCC3)cc(C(C)C)c1CC(=O)NS(=O)(=O)c1sc(C(C)(C)O)nc1CO [Compound 101],1000 to 5000 nM
21,CNS(=O)(=O)c1ccc(S(=O)(=O)NC(=O)Cc2c(C(C)C)cc(C#N)c(F)c2C(C)C)cc1CO [Compound 128],200 to 1000 nM
22,CNS(=O)(=O)c1ccc(S(=O)(=O)NC(=O)Cc2c(C(C)C)cc(COC)cc2C(C)C)c(CO)c1 [Compound 116],1000 to 5000 nM
23,CC(C)c1cc(C#N)cc(C(C)C)c1CC(=O)NS(=O)(=O)c1sc(C(C)(C)O)nc1CO [Compound 134],1000 to 5000 nM

# Now from value to compound:
row,IC50,Structure (SMILES)
1,1000 to 5000 nM,COc1cc(S(=O)(=O)NCCCO)ccc1S(=O)(=O)NC(=O)Cc1c(C(C)C)cc(C#N)c(F)c1C(C)C [Compound 103]
2,1000 to 5000 nM,CC(C)c1cc(C#N)c(F)c(C(C)C)c1CC(=O)NS(=O)(=O)c1ccc(S(N)(=O)=O)c(CO)c1 [Compound 131]
3,200 to 1000 nM,CNS(=O)(=O)c1ccc(S(=O)(=O)NC(=O)Cc2c(C(C)C)cc(C#N)c(F)c2C(C)C)c(O)c1 [Compound 107]
4,1000 to 5000 nM,CC(C)c1cc(C#N)c(F)c(C(C)C)c1CC(=O)NS(=O)(=O)c1ccc(C(C)(C)O)c(CO)c1 [Compound 138]
5,5000 to 30000 nM,CNS(=O)(=O)c1ccc(S(=O)(=O)NC(=O)Cc2c(C(C)C)cc(C#N)c(F)c2C(C)C)c(C(=O)OC)c1 [Compound 120]
6,5000 to 30000 nM,CNC(=O)c1cc(S(=O)(=O)NC(=O)Cc2c(C(C)C)cc(C#N)c(F)c2C(C)C)ccc1S(=O)(=O)NC [Compound 132]
7,5000 to 30000 nM,CNS(=O)(=O)c1ccc(S(=O)(=O)NC(=O)Cc2c(C(C)C)cc(C#N)c(F)c2C(C)C)c(C(N)=O)c1 [Compound 111]
8,5000 to 30000 nM,COc1cc(S(=O)(=O)NCCO)ccc1S(=O)(=O)NC(=O)Cc1c(C(C)C)cc(C#N)c(F)c1C(C)C [Compound 106]
9,1000 to 5000 nM,CC(C)c1cc(C#N)c(F)c(C(C)C)c1CC(=O)NS(=O)(=O)c1ccc(CN(C)C)c(CO)c1 [Compound 133]

# Same assay, conditions: Homo sapiens, gramicidin 5 μM, 2% fetal bovine serum, given as numeric bound
row,IC50,Structure (SMILES)
1,> 100000 nM,CNS(=O)(=O)c1ccc(S(=O)(=O)NC(=O)Cc2c(C(C)C)cc(C#N)c(F)c2C(C)C)c(C(=O)N(C)C)c1 [Compound 112]
2,> 100000 nM,CC(C)c1cc(C#N)c(F)c(C(C)C)c1CC(=O)NS(=O)(=O)c1ccc(S(=O)(=O)NC(C)(C)C)cc1CO [Compound 124]
3,> 100000 nM,CNS(=O)(=O)c1ccc(S(=O)(=O)NC(=O)Cc2c(C(C)C)cc(C#N)c(F)c2C(C)C)c(C(=O)O)c1 [Compound 114]
4,> 100000 nM,CC(C)c1cc(C#N)c(F)c(C(C)C)c1CC(=O)NS(=O)(=O)c1ccc(S(N)(=O)=O)cc1CO [Compound 126]

# Test system: not listed separately
# Experiment: Colon pharmacokinetics in mice
# Type: in vivo
# Conditions: 30 mg/kg oral gavage in 0.5% methyl-cellulose in water, male C57BL/6 mouse, colon conc. to plasma conc. ratio at 8 h; read-out: Mouse TD Colon/Plasma @ 8 h
# Procedure: Assay 2: Colon Pharmacokinetics in Mice
# The test compound was formulated in 0.5% methyl-cellulose in water and dosed via oral gavage at 30 mg/kg to Male C57BL/6 Mouse. At various time points (typically 15 min, 30 min, 1, 2, 4, 6 and 8 h) post dosing, blood samples were removed via cardiac […] puncture and intact colons were excised from the […]. Blood samples were centrifuged at 1500×g for 15 min to collect plasma. At the terminal time point each individual animal is anaesthetized, abdominal cavity is opened and from 2 cm below the caecum a 4 cm sample of the colon is dissected, cut open on the longitudinal axis and the solid contents removed by flushing with 2 mL of physiological fluid. The colon was further washed by putting it in 5 mL of physiological saline and shaken for 1 minute. The colon was pet dry weighed and transferred in 2 mL tubes. Colon will be weighted and homogenized with water by tissue weight (g) to water volume (mL) at ratio 1:3 before analysis. The actual concentration is the detected value multiplied by the dilution factor. A colon to plasma ratio was determined as the ratio of the colon conc. to the plasma conc. in pg hr/g. at 8 h time point.
row,Structure (SMILES),Kp at 8 h
1,CNS(=O)(=O)c1ccc(S(=O)(=O)NC(=O)Cc2c(C(C)C)cc(C#N)c(F)c2C(C)C)c(CO)c1 [Compound 127],197
2,CC(C)Cc1cc(C#N)cc(C(C)C)c1CC(=O)NS(=O)(=O)c1sc(C(C)(C)O)nc1CO [Compound 122],1480
3,CCC(C)c1cc(C#N)cc(C(C)C)c1CC(=O)NS(=O)(=O)c1sc(C(C)(C)O)nc1CO (stereo not drawn) [Compound 119],6720
4,CNS(=O)(=O)c1ccc(S(=O)(=O)NC(=O)Cc2c(C(C)C)cc(C#N)c(F)c2C(C)C)c(OC)c1 [Compound 117],3380
5,CNS(=O)(=O)c1ccc(S(=O)(=O)NC(=O)Cc2c(C(C)C)cc(COC3CCCC3)cc2C(C)C)c(CO)c1 [Compound 140],558
6,CNS(=O)(=O)c1ccc(S(=O)(=O)NC(=O)Cc2c(C(C)C)cc(C#N)c(F)c2C(C)C)cc1CO [Compound 128],1180
